According to ChEMBL document CHEMBL1155563, “Structure-activity relationship of polyisoprenyl benzophenones from Garcinia pyrifera on the tubulin/microtubule system” (J Nat Prod, 2000):
pIC50: −log10 of the molar value. Active and inactive are the calls of the source. The calls are words filed in the database; no cut-off is given here.

Assays:
[1] = Inhibition of tubulin microtubule disassembly
KB = assay: Cytotoxicity against human KB cells; format: functional, cell-based

Activity [1] | pIC50 [1] | SMILES | pIC50 (KB)
inactive |  | CC(C)CC[C@H](C[C@]12C[C@H](CCC(C)C)C(C)(C)[C@](CCC(C)C)(C(=O)C(C(=O)c3ccc(O)c(O)c3)=C1O)C2=O)C(C)C [OCTAHYDROXANTHOCHYMOL] | 4.70
 | 6.30 | CC(=O)O[C@H]1C(=O)[C@@]2(C)[C@H]([C@H](OC(=O)c3ccccc3)[C@]3(O)C[C@H](OC(=O)[C@H](O)[C@@H](NC(=O)c4ccccc4)c4ccccc4)C(C)=C1C3(C)C)[C@]1(OC(C)=O)CO[C@@H]1C[C@@H]2O [PACLITAXEL] | 
